Values quoted from earlier work, collected in patent US9510493B2, “Mixture of hydrofluoroolefin and fluoroketone for use as an insulation and/or ARC extinguishing medium and a gas insulated medium-voltage electrical device comprising same” (priority 2011, dated 2016).

What was measured:
animal population = conditions: causing death of 50% of an animal population
humans = conditions: average limit concentration, 8 hours per day for 5 days per week, without noxious effect

Compound	lethal dose DL50 (animal population)	occupational exposure limit OEL (humans)
O=C(C(F)(F)F)C(F)(C(F)(F)F)C(F)(F)F [C5K, decafluoro-2-methylbutan-3-one]	more than 200 000 ppm	1 000 ppm
F/C=C/C(F)(F)F [HFO-1234ze, trans-1,3,3,3-tetrafluoro-1-propene]	> 200 000 ppm	1 000 ppm
